Experimental findings from patent US20260317309A1, “N-HETEROCYLIC GPCR RECEPTOR AGONISTS, PHARMACEUTICAL COMPOSITIONS COMPRISING THE SAME, AND METHODS FOR THEIR USE” (Carmot Therapeutics, Inc., priority 2022, published 2026) are described below.

What is called EC50 is the midpoint of the concentration-response curve. A higher EC50 goes with weaker potency.

This test addresses T1, human GLP-1 receptor (Homo sapiens, UniProt P43220).
T1 construct: expressed in transfected cells
Kind of test: GLP-1R cAMP assay (cAMP accumulation in CHO cells stably overexpressing the human GLP-1 receptor, HitHunter kit). The test is classed as cell-based. Particulars: CHO cells stably overexpressing human GLP-1R, 30 min, 20-point dose response in triplicate. Summed up:
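CHO cells stably expressing the human receptor (10,000/well) in HBSS with 10 mM HEPES and 625 μM IBMX, given compound as a 20-point dose response in triplicate for 30 min. cAMP was read by luminescent enzyme-complementation detection after overnight incubation, and EC50 was fitted from dose-response curves.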
On the technique in general: cAMP levels reflect the balance of adenylyl cyclase and phosphodiesterase activity.

T1 sequence (P43220 24-463): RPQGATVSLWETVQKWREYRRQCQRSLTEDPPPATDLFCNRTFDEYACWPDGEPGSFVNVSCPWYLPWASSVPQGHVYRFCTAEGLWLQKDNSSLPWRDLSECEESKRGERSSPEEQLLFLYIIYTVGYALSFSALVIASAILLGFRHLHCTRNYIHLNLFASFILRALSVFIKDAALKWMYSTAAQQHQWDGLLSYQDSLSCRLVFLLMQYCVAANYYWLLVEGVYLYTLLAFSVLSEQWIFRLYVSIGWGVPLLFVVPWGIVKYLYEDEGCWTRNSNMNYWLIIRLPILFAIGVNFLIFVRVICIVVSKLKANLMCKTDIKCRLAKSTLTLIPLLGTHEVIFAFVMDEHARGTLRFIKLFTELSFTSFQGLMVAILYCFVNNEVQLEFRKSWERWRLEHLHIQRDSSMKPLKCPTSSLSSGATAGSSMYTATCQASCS

`N#Cc1ccc(OCc2nccc(O[C@H]3CC[C@@H](Cc4nc5ccc(C(=O)O)cc5n4C[C@@H]4CCO4)CC3)n2)c(F)c1` [Compound 641, 1-{[(2S)-oxetan-2-yl]methyl}-2-{[(1s,4s)-4-({2-[(4-cyano-2-fluorophenoxy)methyl]pyrimidin-4-yl}oxy)cyclohcxyl]methyl}-1H-1,3-benzodiazole-6-carboxylic acid] registered an EC50 of 100 to 500 nM.

In turn, `C[C@H]1C[C@@H](Oc2ccnc(COc3ncc(F)cc3C#N)n2)CCN1Cc1nc2ccc(C(=O)O)cc2n1C[C@@H]1CCO1` [Compound 630, 2-(((2S,4S)-4-((2-(((3-Cyano-5-fluoropyridin-2-yl)oxy)methyl)pyrimidin-4-yl)oxy)-2-methylpiperidin-1-yl)methyl)-1-(((S)-oxetan-2-yl)methyl)-1H-benzo[d]imidazole-6-carboxylic acid] yielded an EC50 of 0.1 to 1 nM.

The compound `C[C@H](Cn1c(CN2CC[C@H](Oc3ccnc(COc4ncc(F)cc4C#N)n3)C[C@@H]2C)nc2ccc(C(=O)O)cc21)OC(F)F` [Compound 627, 2-(((2S,4S)-4-((2-(((3-Cyano-5-fluoropyridin-2-yl)oxy)methyl)pyrimidin-4-yl)oxy)-2-methylpiperidin-1-yl)methyl)-1-((R)-2-(difluoromethoxy)propyl)-1H-benzo[d]imidazole-6-carboxylic acid] had an EC50 of 0.1 to 1 nM.

Compound `COC1(Cn2c(CN3CC[C@H](Oc4ccnc(COc5ccc(F)cc5F)n4)C[C@@H]3C)nc3ccc(C(=O)O)cc32)CCC1` [Compound 600, 2-{[(2S,4S)-4-({2-[(2,4-Difluorophenoxy)methyl]pyrimidin-4-yl}oxy)-2-methylpiperidin-1-yl]methyl}-1-[(1-methoxycyclobutyl)methyl]-1H-1,3-benzodiazole-6-carboxylic acid] showed an EC50 of 0.1 to 1 nM.

With `C[C@H]1C[C@@H](Oc2ccnc(COc3ncc(F)cc3F)n2)CCN1Cc1nc2ccc(C(=O)O)cc2n1C[C@@H]1CCO1` [Compound 566, 2-{[(2S,4S)-4-[(2-{[(3,5-Difluoropyridin-2-yl)oxy]methyl}pyrimidin-4-yl)oxy]-2-methylpiperidin-1-yl]methyl}-1-{[(2S)-oxetan-2-yl]methyl}-1H-1,3-benzodiazole-6-carboxylic acid], the EC50 lay in the range of 0.1 to 1 nM.

`C[C@H]1C[C@@H](Oc2ccnc(COc3ccc(Cl)cn3)c2)CCN1Cc1nc2c(F)cc(C(=O)O)cc2n1C[C@@H]1CCO1` [Compound 616, 2-(((2S,4S)-4-((2-(((5-Chloropyridin-2-yl)oxy)methyl)pyridin-4-yl)oxy)-2-methylpiperidin-1-yl)methyl)-4-fluoro-1-(((S)-oxetan-2-yl)methyl)-1H-benzo[d]imidazole-6-carboxylic acid] showed a concentration giving a half-maximal response (EC50) of 0.1 to 1 nM.

As for `C[C@H](Cn1c(CN2CC[C@H](Oc3ccnc(COc4ncc(F)cc4F)n3)C[C@@H]2C)nc2c(F)cc(C(=O)O)cc21)OC(F)F` [Compound 620, 1-((R)-2-(difluoromethoxy)propyl)-2-(((2S,4S)-4-((2-(((3,5-difluoropyridin-2-yl)oxy)methyl)pyrimidin-4-yl)oxy)-2-methylpiperidin-1-yl)methyl)-4-fluoro-1H-benzo[d]imidazole-6-carboxylic acid], the EC50 lay in the range of 0.1 to 1 nM.

In turn, `C[C@@H](Cn1c(CN2CC[C@H](Oc3ccnc(COc4ccc(F)cc4F)n3)C[C@@H]2C)nc2ccc(C(=O)O)cc21)OCC(F)(F)F` [Compound 598, 2-{[(2S,4S)-4-({2-[(2,4-Difluorophenoxy)methyl]pyrimidin-4-yl}oxy)-2-methylpiperidin-1-yl]methyl}-1-[(2S)-2-(2,2,2-trifluoroethoxy)propyl]-1H-1,3-benzodiazole-6-carboxylic acid] had an EC50 of 0.1 to 1 nM.

Regarding `O=C(O)c1cc(F)c2nc(CN3CCC(Oc4ccnc(COc5ncc(F)cc5F)n4)CC3)n(C[C@@H]3CCO3)c2c1` [Compound 628, (S)-2-((4-((2-(((3,5-difluoropyridin-2-yl)oxy)methyl)pyrimidin-4-yl)oxy)piperidin-1-yl)methyl)-4-fluoro-1-(oxetan-2-ylmethyl)-1H-benzo[d]imidazole-6-carboxylic acid], the EC50 lay within 0.1 to 1 nM.

Compound `C[C@H]1C[C@@H](Oc2ccnc(COc3ccc(F)cc3F)n2)CCN1Cc1nc2ccc(C(=O)O)cc2n1C[C@@H]1CCCO1` [Compound 589, 2-{[(2S,4S)-4-({2-[(2,4-Difluorophenoxy)methyl]pyrimidin-4-yl}oxy)-2-methylpiperidin-1-yl]methyl}-1-{[(2S)-oxolan-2-yl]methyl}-1H-1,3-benzodiazole-6-carboxylic acid] showed an EC50 of 0.1 to 1 nM.

`C[C@H]1C[C@@H](Oc2ccnc(COc3ncc(F)cc3F)c2)CCN1Cc1nc2c(F)cc(C(=O)O)cc2n1C[C@@H]1CCO1` [Compound 619, 2-(((2S,4S)-4-((2-(((3,5-Difluoropyridin-2-yl)oxy)methyl)pyridin-4-yl)oxy)-2-methylpiperidin-1-yl)methyl)-4-fluoro-1-(((S)-oxetan-2-yl)methyl)-1H-benzo[d]imidazole-6-carboxylic acid] came in with an EC50 of 1 to 10 nM.

As to `C[C@H]1C[C@@H](Oc2ccnc(COc3ccc(F)cc3F)n2)CCN1Cc1nc2ccc(C(=O)O)cc2n1C[C@@H]1CCS1(=O)=O` [Compound 611, 2-(((2S,4S)-4-((2-((2,4-difluorophenoxy)methyl)pyrimidin-4-yl)oxy)-2-methylpiperidin-1-yl)methyl)-1-(((S)-1,1-dioxidothietan-2-yl)methyl)-1H-benzo[d]imidazole-6-carboxylic acid], the EC50 is 0.1 to 1 nM.

`C[C@H]1C[C@@H](Oc2ccnc(COc3ccc(F)cc3F)n2)CCN1Cc1nc2ccccc2n1C[C@@H]1CCO1` [Compound 633, 2-(((2S,4S)-4-((2-((2,4-Difluorophenoxy)methyl)pyrimidin-4-yl)oxy)-2-methylpiperidin-1-yl)methyl)-1-(((S)-oxetan-2-yl)methyl)-1H-benzo[d]imidazole] gave an EC50 of 10 to 100 nM.

`N#Cc1cnc(OCc2nccc(OC3CCN(Cc4nc5c(F)cc(C(=O)O)cc5n4C[C@@H]4CCO4)CC3)n2)c(F)c1` [Compound 634] displayed an EC50 of 0.1 to 1 nM.
